Data reported in ChEMBL document CHEMBL1145086, “Selectivity fields: comparative molecular field analysis (CoMFA) of the glycine/NMDA and AMPA receptors” (J Med Chem, 2003).
Values joined by “and” are separate entries in the source; they are usually repeats but may differ in a detail not shown here. Equal values may be shown once.

Legend:
[1] = biological target: Glutamate receptor ionotropic, NMDA 1 (Rattus norvegicus, UniProt P35439); experiment: Binding selectivity towards N-methyl-D-aspartate glutamate receptor 1 was determined by using [3H]- glycine/NMDA
[2] = biological target: Glutamate receptor ionotropic, AMPA (Rattus norvegicus, UniProt P19490+P19491+P19492+P19493); experiment: Binding selectivity towards Ionotropic glutamate receptor AMPA was determined by using [3H]- AMPA; type: protein-complex assay

Structure (SMILES)	Ki [1]	Ki [2] [µM]
O=C[n+]1cccn1-c1cc2c(cc1Cl)NC(C(=O)O)n1nc(C(=O)O)cc1-2 (stereo not given)	8.2 µM	0.27
O=C(O)c1cc2n(n1)C(C(=O)O)Nc1cc(Cl)c(-n3ccnc3)cc1-2 (stereo not given)	8.3 µM	0.14
O=C(O)c1nc2c(=O)[nH]c3cc(Cl)c(-n4ccnc4)cc3n2n1	33.5 µM	0.14
O=C(O)c1nc2c(=O)[nH]c3cc(Cl)c(-n4cccn4)cc3n2n1	0.86 µM and 5.3 µM	0.86
CCOC(=O)c1cc2n(n1)C(C(=O)O)Nc1cc(Cl)c(-n3ccc[n+]3C=O)cc1-2 (stereo not given)	57 µM	1.4
O=C[n+]1cccn1-c1cc2c(cc1Cl)[nH]c(=O)c1nc(C(=O)O)nn12	28 µM	0.53
O=C(O)c1cc2n(n1)C(C(=O)O)Nc1cc(Cl)c([N+](=O)[O-])cc1-2 (stereo not given)	1.1 µM	0.74
CCOC(=O)c1cc2n(n1)C(C(=O)O)Nc1ccccc1-2 (stereo not given)	33.3 µM	42

The remaining lines, values ahead:

Ki [1]	Ki [2] [µM]	Structure (SMILES)
4.8 µM	–	CCOC(=O)c1nc2c(=O)[nH]c3cc(Cl)c(N)cc3n2n1
4.8 µM	4.9	CCOC(=O)c1nc2c(O)nc3ccc(Cl)c(Cl)c3n2n1
19 µM	1.9	CCOC(=O)c1nc2c(=O)[nH]c3cc(Cl)c(-n4ccc[n+]4C=O)cc3n2n1
10.6 µM	8.2	CCOC(=O)c1cc2n(n1)C(C(=O)O)Nc1cc(Cl)c([N+](=O)[O-])cc1-2 (stereo not given)
0.16 µM	2.4	O=C(O)c1cc2n(n1)C(C(=O)O)Nc1cc(Cl)c(Cl)cc1-2 (stereo not given)
10.2 µM	–	CCOC(=O)c1nc2c(O)nc3cc(Cl)c([N+](=O)[O-])cc3n2n1
23 µM	18.4	CCOC(=O)c1nc2c(O)nc3cc(Cl)c(-n4cccn4)cc3n2n1
3.6 µM	–	Nc1cc2c(cc1Cl)nc(O)c1nc(C(=O)O)nn12
1.41 µM	12.4	O=C(O)c1cc2n(n1)C(C(=O)O)Nc1ccccc1-2 (stereo not given)
0.48 µM	2.3	O=C(O)c1cc2n(n1)C(C(=O)O)Nc1cc(Cl)ccc1-2 (stereo not given)
26.5 µM	72	CCOC(=O)c1cc2n(n1)C(C(=O)O)Nc1cc(Cl)ccc1-2 (stereo not given)
